The text below walks through data of ChEMBL document CHEMBL1136942, “Optimization of 5-phenyl-3-pyridinecarbonitriles as PKCtheta inhibitors” (Bioorg Med Chem Lett, 2009).

Converted amounts (≈) assume the structure as drawn.

For orientation: IC50 means the concentration that gives 50% inhibition. Usually solubility stands for the dissolved amount per volume that the medium holds. A word on the half-life: it is the time needed for the level to fall by half in the phase considered.

The target in data set [1] is Protein kinase C theta type (Homo sapiens, UniProt Q04759). Description: Inhibition of human PKCtheta by IMAP assay.
Protein kinase C theta type, sequence (Q04759 whole entry): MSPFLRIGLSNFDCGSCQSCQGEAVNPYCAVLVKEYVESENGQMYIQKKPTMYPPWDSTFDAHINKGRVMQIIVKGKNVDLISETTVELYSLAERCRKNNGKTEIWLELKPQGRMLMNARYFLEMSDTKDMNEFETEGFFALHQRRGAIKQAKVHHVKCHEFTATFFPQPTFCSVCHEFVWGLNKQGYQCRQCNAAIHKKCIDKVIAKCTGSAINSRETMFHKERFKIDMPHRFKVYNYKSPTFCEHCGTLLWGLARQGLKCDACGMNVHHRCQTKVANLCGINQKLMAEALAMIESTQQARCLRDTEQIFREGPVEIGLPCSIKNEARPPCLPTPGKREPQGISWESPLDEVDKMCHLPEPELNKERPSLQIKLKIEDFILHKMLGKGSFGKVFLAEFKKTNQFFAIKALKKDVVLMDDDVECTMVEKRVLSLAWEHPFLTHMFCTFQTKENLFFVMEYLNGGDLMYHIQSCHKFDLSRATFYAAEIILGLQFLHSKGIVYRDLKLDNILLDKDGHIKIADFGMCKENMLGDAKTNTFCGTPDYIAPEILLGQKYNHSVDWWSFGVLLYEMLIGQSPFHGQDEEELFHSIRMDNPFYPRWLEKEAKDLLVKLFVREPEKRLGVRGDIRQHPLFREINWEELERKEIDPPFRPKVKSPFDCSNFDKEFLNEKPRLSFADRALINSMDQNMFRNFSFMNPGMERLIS
The target in data set [2] is Protein kinase C delta type (Homo sapiens, UniProt Q05655). The data set can be described thus: Inhibition of human PKCdelta by IMAP assay.
Protein kinase C delta type, sequence (Q05655 whole entry): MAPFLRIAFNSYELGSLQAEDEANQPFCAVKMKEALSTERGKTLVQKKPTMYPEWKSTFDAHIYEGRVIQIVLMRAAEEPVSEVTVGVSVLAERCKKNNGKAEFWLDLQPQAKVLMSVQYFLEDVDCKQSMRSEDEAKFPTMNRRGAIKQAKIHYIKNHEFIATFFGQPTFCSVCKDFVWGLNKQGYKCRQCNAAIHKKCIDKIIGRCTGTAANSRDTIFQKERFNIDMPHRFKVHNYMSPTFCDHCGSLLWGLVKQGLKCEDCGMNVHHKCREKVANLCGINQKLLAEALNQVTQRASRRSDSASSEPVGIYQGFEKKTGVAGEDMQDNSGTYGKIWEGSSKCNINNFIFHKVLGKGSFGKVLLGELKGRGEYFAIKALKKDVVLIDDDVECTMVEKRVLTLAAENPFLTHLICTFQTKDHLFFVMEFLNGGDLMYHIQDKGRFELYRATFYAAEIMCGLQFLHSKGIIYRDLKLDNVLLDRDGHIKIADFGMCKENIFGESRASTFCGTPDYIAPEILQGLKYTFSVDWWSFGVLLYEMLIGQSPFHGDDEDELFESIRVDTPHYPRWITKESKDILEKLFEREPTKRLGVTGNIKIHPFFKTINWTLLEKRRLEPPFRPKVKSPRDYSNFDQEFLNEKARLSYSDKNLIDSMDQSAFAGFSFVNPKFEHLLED
Data set [3] has as its target Rho-associated protein kinase 1 (Homo sapiens, UniProt Q13464). Description: Inhibition of ROCK1.
The target in data set [4] is T1, Protein kinase C zeta type (Homo sapiens, UniProt Q05513).
T1 sequence (Q05513 whole entry): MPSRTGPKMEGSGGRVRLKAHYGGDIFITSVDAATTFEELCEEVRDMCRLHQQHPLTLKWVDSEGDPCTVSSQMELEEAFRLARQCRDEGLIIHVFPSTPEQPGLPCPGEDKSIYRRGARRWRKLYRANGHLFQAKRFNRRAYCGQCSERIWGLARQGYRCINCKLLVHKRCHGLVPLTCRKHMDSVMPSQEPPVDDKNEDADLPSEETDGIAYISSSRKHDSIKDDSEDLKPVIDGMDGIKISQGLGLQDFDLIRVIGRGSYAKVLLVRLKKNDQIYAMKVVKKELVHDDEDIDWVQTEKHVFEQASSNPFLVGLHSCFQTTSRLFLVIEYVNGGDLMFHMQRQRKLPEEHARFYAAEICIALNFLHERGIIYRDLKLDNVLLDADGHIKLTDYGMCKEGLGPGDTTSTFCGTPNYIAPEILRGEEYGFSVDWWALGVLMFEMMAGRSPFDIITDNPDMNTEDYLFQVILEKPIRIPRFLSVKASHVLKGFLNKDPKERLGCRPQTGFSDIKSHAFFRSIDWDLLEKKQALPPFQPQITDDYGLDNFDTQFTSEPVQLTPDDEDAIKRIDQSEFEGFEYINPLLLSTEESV
Description: Inhibition of human PKCzeta by IMAP assay.

The subject of data set [5] is T-cell. Description: Blockade of anti-CD3 and anti-CD28 antibody-induced IL2 expression in PKC theta knockout mouse T cells after 20 to 24 hrs by ELISA. It is filed as functional, cell-based. Background: ELISA stands for enzyme-linked immunosorbent assay.
The nature of data set [6]: Inhibition of PDGFR.
Data set [7] deals with Tyrosine-protein kinase Lck (Homo sapiens, UniProt P06239). Description: Inhibition of Lck.
Tyrosine-protein kinase Lck, sequence (P06239 whole entry): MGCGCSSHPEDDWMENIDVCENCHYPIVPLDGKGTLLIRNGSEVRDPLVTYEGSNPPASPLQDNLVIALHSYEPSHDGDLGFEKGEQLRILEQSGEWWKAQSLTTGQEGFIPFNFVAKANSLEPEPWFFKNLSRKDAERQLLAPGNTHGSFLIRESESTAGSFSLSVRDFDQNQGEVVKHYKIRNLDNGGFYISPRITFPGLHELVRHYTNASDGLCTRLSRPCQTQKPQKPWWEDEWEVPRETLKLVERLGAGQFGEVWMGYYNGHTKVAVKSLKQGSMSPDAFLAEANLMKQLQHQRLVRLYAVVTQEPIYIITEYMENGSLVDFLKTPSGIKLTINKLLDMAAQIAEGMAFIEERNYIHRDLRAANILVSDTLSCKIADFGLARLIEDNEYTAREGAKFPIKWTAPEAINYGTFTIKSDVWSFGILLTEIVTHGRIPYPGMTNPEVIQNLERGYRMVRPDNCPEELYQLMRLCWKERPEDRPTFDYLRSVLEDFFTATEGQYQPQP
Data set [8] in a line: Solubility at pH 7.4. Format: physicochemical. Particulars: buffer.
Data set [9] deals with Tyrosine-protein kinase Lyn (Homo sapiens, UniProt P07948). The data set can be described thus: Inhibition of Lyn.
Tyrosine-protein kinase Lyn, sequence (P07948 whole entry): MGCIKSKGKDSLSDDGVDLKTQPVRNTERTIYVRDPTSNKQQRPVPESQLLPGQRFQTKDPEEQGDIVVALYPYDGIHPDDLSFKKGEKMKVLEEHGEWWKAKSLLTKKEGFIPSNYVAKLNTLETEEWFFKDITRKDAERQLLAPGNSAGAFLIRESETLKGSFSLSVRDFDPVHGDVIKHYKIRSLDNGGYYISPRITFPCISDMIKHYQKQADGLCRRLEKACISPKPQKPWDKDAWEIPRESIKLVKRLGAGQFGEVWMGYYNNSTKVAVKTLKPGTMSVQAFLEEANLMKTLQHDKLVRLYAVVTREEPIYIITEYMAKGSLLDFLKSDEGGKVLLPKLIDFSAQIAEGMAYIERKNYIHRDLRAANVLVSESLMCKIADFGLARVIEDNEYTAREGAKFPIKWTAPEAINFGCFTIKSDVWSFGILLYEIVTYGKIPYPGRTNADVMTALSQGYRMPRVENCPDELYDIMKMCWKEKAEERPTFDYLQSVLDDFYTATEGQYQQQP
Data set [10] can be described thus: Metabolic stability in monkey liver microsomes assessed as half life. It is filed as ADME, Macaca mulatta, Microsome. Particulars: rhesus monkey. In general terms: Liver microsomes are vesicles of endoplasmic reticulum, rich in cytochrome P450 enzymes.
The nature of data set [11]: Metabolic stability in human liver microsomes assessed as half life. It is filed as ADME, Microsome.
Data set [12] can be described thus: Inhibition of IKK.
Data set [13] has as its target MAP kinase-activated protein kinase 2 (Homo sapiens, UniProt P49137). The data set can be described thus: Inhibition of MK2.
Data set [14] has as its system T-cell. Description: Blockade of anti-CD3 and anti-CD28 antibody-induced IL2 expression in wild type C57BL/6 mouse T cells after 20 to 24 hrs by ELISA. Format: functional, cell-based. Particulars: C57BL/6, T-cell.
Data set [15] has as its target Protein kinase C eta type (Homo sapiens, UniProt P24723). Description: Inhibition of human PKCeta by IMAP assay.
A short description of data set [16]: Metabolic stability in rat liver microsomes assessed as half life. Format: ADME, Microsome.
Data set [17] can be described thus: Inhibition of p38.
A short description of data set [18]: Metabolic stability in mouse liver microsomes assessed as half life. Format: ADME, Microsome.
Data set [19] has as its target T2, Protein kinase C epsilon type (Homo sapiens, UniProt Q02156).
T2 sequence (Q02156 whole entry): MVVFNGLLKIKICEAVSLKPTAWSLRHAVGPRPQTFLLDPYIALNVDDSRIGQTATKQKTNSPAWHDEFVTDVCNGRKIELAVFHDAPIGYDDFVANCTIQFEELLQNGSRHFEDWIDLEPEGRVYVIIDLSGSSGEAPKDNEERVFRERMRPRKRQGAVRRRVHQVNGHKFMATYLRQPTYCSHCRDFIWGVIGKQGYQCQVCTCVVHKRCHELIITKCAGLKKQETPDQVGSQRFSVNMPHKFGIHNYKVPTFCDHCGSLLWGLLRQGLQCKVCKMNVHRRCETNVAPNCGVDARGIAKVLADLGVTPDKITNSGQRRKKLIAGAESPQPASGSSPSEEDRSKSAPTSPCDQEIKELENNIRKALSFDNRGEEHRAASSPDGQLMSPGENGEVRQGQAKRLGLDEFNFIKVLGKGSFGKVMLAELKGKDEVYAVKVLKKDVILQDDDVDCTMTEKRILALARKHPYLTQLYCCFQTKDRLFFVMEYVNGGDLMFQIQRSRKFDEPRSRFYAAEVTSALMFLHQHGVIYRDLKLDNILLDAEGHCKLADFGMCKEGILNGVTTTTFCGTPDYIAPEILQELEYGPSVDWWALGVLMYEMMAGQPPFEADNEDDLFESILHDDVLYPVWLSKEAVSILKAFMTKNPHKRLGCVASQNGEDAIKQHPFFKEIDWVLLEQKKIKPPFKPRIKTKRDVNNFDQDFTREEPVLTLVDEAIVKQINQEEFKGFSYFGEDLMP
The data set can be described thus: Inhibition of human PKCepsilon by IMAP assay.

Data set [20] can be described thus: Membrane permeability by PAMPA. It is filed as ADME. Conditions: read-out: permeability. In general terms: The PAMPA barrier holds no transporters, so it reflects passive diffusion.
In data set [21] the target is Protein kinase C beta type (Homo sapiens, UniProt P05771). The data set can be described thus: Inhibition of human PKCbeta by IMAP assay.
Protein kinase C beta type, sequence (P05771 whole entry): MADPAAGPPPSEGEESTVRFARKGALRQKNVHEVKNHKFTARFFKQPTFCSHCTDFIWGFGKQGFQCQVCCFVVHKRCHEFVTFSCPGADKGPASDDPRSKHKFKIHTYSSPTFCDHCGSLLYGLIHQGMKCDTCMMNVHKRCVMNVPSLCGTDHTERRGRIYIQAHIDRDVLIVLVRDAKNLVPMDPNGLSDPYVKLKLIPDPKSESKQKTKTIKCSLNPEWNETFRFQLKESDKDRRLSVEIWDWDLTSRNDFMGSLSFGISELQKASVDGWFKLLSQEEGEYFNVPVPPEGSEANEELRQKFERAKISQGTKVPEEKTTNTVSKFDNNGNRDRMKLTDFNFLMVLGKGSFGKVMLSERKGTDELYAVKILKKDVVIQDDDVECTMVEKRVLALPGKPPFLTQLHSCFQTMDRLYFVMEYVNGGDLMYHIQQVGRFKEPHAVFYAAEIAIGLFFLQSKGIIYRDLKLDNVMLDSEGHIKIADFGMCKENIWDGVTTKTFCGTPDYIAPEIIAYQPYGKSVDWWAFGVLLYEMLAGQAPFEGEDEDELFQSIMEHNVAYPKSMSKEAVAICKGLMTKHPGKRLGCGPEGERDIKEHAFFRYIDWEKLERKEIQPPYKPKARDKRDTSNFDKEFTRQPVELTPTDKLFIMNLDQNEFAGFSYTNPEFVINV
A short description of data set [22]: Metabolic stability in dog liver microsomes assessed as half life. Format: ADME, Canis lupus familiaris, Microsome.

Protein kinase C eta type, sequence (P24723 whole entry): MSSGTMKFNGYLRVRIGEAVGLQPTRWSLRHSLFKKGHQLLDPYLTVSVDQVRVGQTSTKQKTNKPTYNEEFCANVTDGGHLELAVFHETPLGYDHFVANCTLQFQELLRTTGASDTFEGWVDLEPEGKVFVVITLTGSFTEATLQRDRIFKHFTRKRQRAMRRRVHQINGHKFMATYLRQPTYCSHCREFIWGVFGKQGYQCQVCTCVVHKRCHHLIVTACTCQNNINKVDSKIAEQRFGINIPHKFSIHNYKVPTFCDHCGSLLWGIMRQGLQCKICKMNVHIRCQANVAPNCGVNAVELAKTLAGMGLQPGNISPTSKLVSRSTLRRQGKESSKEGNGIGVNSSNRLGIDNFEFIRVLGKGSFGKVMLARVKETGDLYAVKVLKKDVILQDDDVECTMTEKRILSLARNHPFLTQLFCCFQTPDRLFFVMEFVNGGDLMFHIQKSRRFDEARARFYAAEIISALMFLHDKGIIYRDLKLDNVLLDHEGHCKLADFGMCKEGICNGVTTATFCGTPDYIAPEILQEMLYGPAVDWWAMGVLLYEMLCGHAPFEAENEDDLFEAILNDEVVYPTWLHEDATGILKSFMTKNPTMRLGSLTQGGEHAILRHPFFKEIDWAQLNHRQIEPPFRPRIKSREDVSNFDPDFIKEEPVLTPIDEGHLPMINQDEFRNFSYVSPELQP
MAP kinase-activated protein kinase 2, sequence (P49137 whole entry): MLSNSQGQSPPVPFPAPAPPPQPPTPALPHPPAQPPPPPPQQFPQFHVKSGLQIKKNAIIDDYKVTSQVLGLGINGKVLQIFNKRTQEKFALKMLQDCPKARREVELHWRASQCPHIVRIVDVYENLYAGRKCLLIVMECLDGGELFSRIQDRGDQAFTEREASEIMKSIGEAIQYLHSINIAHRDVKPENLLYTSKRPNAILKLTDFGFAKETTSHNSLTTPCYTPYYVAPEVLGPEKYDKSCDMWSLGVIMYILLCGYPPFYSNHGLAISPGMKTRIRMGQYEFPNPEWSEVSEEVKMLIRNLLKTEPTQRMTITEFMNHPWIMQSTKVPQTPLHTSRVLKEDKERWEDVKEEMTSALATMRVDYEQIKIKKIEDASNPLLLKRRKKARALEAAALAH

As to `COc1ccc(-c2cncc(C#N)c2Nc2ccc3[nH]ccc3c2F)cc1OC`, the concentration for half-maximal inhibition (IC50) in data set [1] worked out at 5.3 nM; in data set [2], 69 nM.
Consider `Cc1c(Nc2c(C#N)cncc2-c2ccc(OCCNCCN(C)C)cc2)ccc2[nH]ccc12`, for which the IC50 amounted to 5.9 nM in data set [1] and 18 nM in data set [2].
Consider `CN1CCN(CCOc2ccc(-c3cncc(C#N)c3Nc3ccc4[nH]ccc4c3)cc2)CC1`, for which inhibition in data set [2] was half-maximal at 160 nM (IC50).
`Cc1c(Nc2c(C#N)cncc2-c2ccc(OCCN3CCN(C)CC3)cc2)ccc2[nH]ccc12`: the IC50 in data set [3] is greater than 10000 nM; in [4] it was greater than 100000 nM; with T-cell [5], greater than 15000 nM; in [6] it was greater than 10000 nM; in data set [1], 7.4 nM; in data set [7], greater than 10000 nM. Besides, the IC50 is greater than 10000 nM in data set [9]; greater than 10000 nM in data set [12]; greater than 10000 nM in data set [13]; 160 nM in the data set with T-cell [14]; 450 nM in [15]; greater than 10000 nM in data set [17]. The IC50 was determined as 51 nM in data set [2], 54 nM in [19] and 22000 nM in data set [21]. The compound further showed a solubility in data set [8] of 67 µg/mL (≈ 144 µM). Further, the half-life in data set [10], in data set [11], in data set [16], in data set [18] and in data set [22] was less than 15 min each time. Besides, the Papp in [20] was 0.28 ×10⁻⁶ cm/s.
In data set [2], `COc1cccc(-c2cncc(C#N)c2Nc2ccc3[nH]ccc3c2C)c1` yielded a half-inhibitory concentration (IC50) of 210 nM.
`COc1ccc(-c2cncc(C#N)c2Nc2ccc3[nH]ccc3c2C)cc1`: the IC50 in [1] amounted to 5.6 nM; in data set [2], 85 nM.
For `Cc1c(Nc2c(C#N)cncc2-c2ccc(OCCN3CCCC3)cc2)ccc2[nH]ccc12`, the values for the IC50 in data set [1] and in data set [2] were 4.5 nM and 28 nM, respectively.
In turn, `COc1ccc(-c2cncc(C#N)c2Oc2ccc3[nH]ccc3c2)cc1OC` gave an IC50 in data set [1] of 1700 nM.
Compound `COc1ccc(-c2cncc(C#N)c2Nc2cc(C)c3[nH]ccc3c2)cc1OC` yielded an IC50 in data set [1] of 120 nM.
For the compound `Cc1c(Nc2c(C#N)cncc2-c2ccc(OCCCN3CCN(C)CC3)cc2)ccc2[nH]ccc12`, the IC50 in data set [2] came to 110 nM.
With `COc1ccc(-c2cncc(C#N)c2Nc2ccc3c(ccn3C)c2C)cc1OC`, the results for the IC50 in data set [1] and in data set [2] were 260 nM and 1400 nM, respectively.
Consider `Cc1c(Nc2c(C#N)cncc2-c2ccc(OCCN3CCOCC3)cc2)ccc2[nH]ccc12`, for which the half-inhibitory concentration (IC50) in [2] turned out to be 150 nM.
`CCc1c(Nc2c(C#N)cncc2-c2ccc(OC)c(OC)c2)ccc2[nH]ccc12`: the 50% inhibitory concentration (IC50) in data set [1] turned out to be 55 nM; in [2] it was 980 nM.
On to `Cc1c(Nc2c(C#N)cncc2-c2ccccc2)ccc2[nH]ccc12`, for which, in [2], the IC50 amounted to 63 nM.
As for `COc1ccc(-c2cncc(C#N)c2-c2ccc3[nH]ccc3c2)cc1OC`, the IC50 in data set [1] is 1700 nM.
In data set [2], `COc1ccccc1-c1cncc(C#N)c1Nc1ccc2[nH]ccc2c1C` had an IC50 of 340 nM.
In turn, `Cc1cc2[nH]ccc2cc1Nc1c(C#N)cncc1-c1ccc(OCCN2CCN(C)CC2)cc1` gave an IC50 in data set [2] of 130 nM.
Regarding `COc1ccc(-c2cncc(C#N)c2Nc2ccc3cc[nH]c3c2)cc1OC`, the half-inhibitory concentration (IC50) in data set [1] came out at 2300 nM.
As to `CN1CCN(CCOc2ccc(-c3cncc(C#N)c3Nc3cccc4[nH]ccc34)cc2)CC1`, the half-maximal inhibitory concentration (IC50) is 14 nM in [1] and 41 nM in data set [2].
For `COc1ccc(-c2cncc(C#N)c2Nc2cc3cc[nH]c3cc2C)cc1OC` the same measures were 10.5 nM and 280 nM.
For `Cc1c(Nc2c(C#N)cncc2-c2ccc(OCCN3CCC(N4CCCC4)CC3)cc2)ccc2[nH]ccc12`, in data set [2], the midpoint of inhibition, the IC50, lay at 30 nM.
On the same count and under the same terms, as for `COc1ccc(-c2cncc(C#N)c2Nc2ccc3[nH]ccc3c2OC)cc1OC`, the figure is 350 nM; as for `COc1ccc(-c2cncc(C#N)c2Nc2cccc3[nH]ccc23)cc1OC`, 62 nM.
Same read-out and setting: as for `COc1ccc(-c2cncc(C#N)c2N(C)c2ccc3[nH]ccc3c2)cc1OC`, the figure is 2100 nM; as for `Cc1c(Nc2c(C#N)cncc2-c2ccc(OCCN3CCN(CCO)CC3)cc2)ccc2[nH]ccc12`, 29 nM.
Take `COc1ccc(-c2cncc(C#N)c2Nc2ccc3[nH]ccc3c2C)cc1OC`: the half-inhibitory concentration (IC50) in data set [1] amounted to 6.3 nM; in data set [2] it was 81 nM.
